According to ChEMBL document CHEMBL4184082 (Bioorg Med Chem Lett, 2018):
Values after ≈ are worked out from the molar mass of the structure shown.

Tests used:
[1] = AUC (0 to last) in rat at 100 mg/kg; type: ADME, organism-based; design: dose 100 mg/kg, time 0 - last; conditions: in vivo
[2] = AUC (0 to last) in rat at 300 mg/kg; type: ADME, organism-based; design: dose 300 mg/kg, time 0 - last; conditions: in vivo
Rattus norvegicus [3] = test: Tumorigenic activity in rat assessed as effect on cell proliferation in non-glandular stomach at 300 mg/kg administered for 6 days and subsequent treatment at 200 mg/kg for 3 days measured on post last dose by Ki-67 staining based histopathological analysis relative to control; type: ADME, organism-based; conditions: in vivo
Rattus norvegicus [4] = test: Toxicity in rat assessed as reduction in body weight at 300 mg/kg administered for 6 days; type: organism-based; conditions: in vivo, 144 h
Rattus norvegicus [5] = test: Tumorigenic activity in rat assessed as effect on cell proliferation in non-glandular stomach at 30 mg/kg administered for 14 days measured on post last dose by Ki-67 staining based histopathological analysis relative to control; type: ADME, organism-based; conditions: in vivo, 336 h
Rattus norvegicus [6] = test: Tumorigenic activity in rat assessed as effect on cell proliferation in non-glandular stomach at 100 mg/kg administered for 14 days measured on post last dose by Ki-67 staining based histopathological analysis relative to control; type: ADME, organism-based; conditions: in vivo, 336 h
Rattus norvegicus [7] = test: Toxicity in rat assessed as effect on food intake at 300 mg/kg administered for 6 days; type: organism-based; conditions: in vivo, 144 h
Mus musculus = test: Reversal of thermal injury-induced muscle damage in C57BL/6 mouse assessed as reduction in Evans blue dye retention time at 10 mg/kg, po administered once daily via gavage treated for 10 days prior to thermal injury on day 4 and subsequent Evans blue dye injection on day 8 measured on day 9 post last dose relative to control; type: functional; design: scale not given: the % may be the effect or the level left
[8] = Thermodynamic solubility of the compound; type: physicochemical; conditions: read-out: Therm_solubility
[9] = AUC (0 to last) in rat at 300 mg/kg measured on day 8; type: ADME, organism-based; design: dose 300 mg/kg, time 0 - last; conditions: in vivo
[10] = AUC (0 to last) in rat at 30 mg/kg; type: ADME, organism-based; design: dose 30 mg/kg, time 0 - last; conditions: in vivo

SMILES | AUC(0-t) [1] [µg·h/mL] | AUC(0-t) [2] [µg·h/mL] | Activity (Rattus norvegicus [3]) [%] | Activity (Rattus norvegicus [4]) | Activity (Rattus norvegicus [5]) [%] | Activity (Rattus norvegicus [6]) [%] | Activity (Rattus norvegicus [7]) | Activity (Mus musculus) [%] | solubility thermodynamic [8] [µM] | AUC(0-t) [9] [µg·h/mL] | AUC(0-t) [10] [µg·h/mL]
C/C(=C\COc1ccccc1CN(C)C(=O)c1ccc(-c2ccco2)cc1)CCC(=O)O | 48 | 201 |  |  |  |  |  |  |  |  | 
Cc1cc(SCc2sc(-c3ccc(C(F)(F)F)cc3)nc2C)ccc1OCC(=O)O [GW501516] | 613 |  | 190 | Toxic | 34 | 81 | Toxic | 48 | 250 (≈ 113 µg/mL) | 2270 | 72
